Test results taken from US20250127907A1, “PARP INHIBITORS” (Stablix, Inc., priority 2023, published 2025).
Read-outs that look alike come from different tables or passages of the source.

How the values were obtained:
[1] = target: T1, PARP1 (Homo sapiens, UniProt P09874); test: PARP1-enzyme assay (NAD/NADH-Glo biochemical assay); settings: recombinant PARP1, NAD+ consumption
Procedure: The PARP enzyme catalyzes the transfer of ADP-Ribose from NAD+ onto PAR chains/histone substrates. The catalytic cycle is monitored indirectly with the NAD/NADH-Glo Assay kit from Promega. […] NAD+ consumed is determined by comparison to the no enzyme control.
• Recombinant PARP1 • NAD+/NAHD-Glow assay Kit • Activated DNA, 10 μg/mL • NAD+(Nicotinamide Adenine Dinucleotide), 500 nM • Protein substrate for PARP1: Core Histone from chicken, 10 μg/mL
(§1) The letter codes for the PARP1-enzyme assay include: A (<1 nM), B (>1-10 nM), C (>10-100 nM), D (>100-1000 nM), E (>1000 nM), and “-” is not tested. The letter codes for the PARP trapping assay, and parylation assay include: A (<10 nM), B (>10-100 nM), C (>100-1000 nM), […], E (>10000 nM), and “-” is not tested.
Target sequence in this assay (P09874 whole entry, species assumed): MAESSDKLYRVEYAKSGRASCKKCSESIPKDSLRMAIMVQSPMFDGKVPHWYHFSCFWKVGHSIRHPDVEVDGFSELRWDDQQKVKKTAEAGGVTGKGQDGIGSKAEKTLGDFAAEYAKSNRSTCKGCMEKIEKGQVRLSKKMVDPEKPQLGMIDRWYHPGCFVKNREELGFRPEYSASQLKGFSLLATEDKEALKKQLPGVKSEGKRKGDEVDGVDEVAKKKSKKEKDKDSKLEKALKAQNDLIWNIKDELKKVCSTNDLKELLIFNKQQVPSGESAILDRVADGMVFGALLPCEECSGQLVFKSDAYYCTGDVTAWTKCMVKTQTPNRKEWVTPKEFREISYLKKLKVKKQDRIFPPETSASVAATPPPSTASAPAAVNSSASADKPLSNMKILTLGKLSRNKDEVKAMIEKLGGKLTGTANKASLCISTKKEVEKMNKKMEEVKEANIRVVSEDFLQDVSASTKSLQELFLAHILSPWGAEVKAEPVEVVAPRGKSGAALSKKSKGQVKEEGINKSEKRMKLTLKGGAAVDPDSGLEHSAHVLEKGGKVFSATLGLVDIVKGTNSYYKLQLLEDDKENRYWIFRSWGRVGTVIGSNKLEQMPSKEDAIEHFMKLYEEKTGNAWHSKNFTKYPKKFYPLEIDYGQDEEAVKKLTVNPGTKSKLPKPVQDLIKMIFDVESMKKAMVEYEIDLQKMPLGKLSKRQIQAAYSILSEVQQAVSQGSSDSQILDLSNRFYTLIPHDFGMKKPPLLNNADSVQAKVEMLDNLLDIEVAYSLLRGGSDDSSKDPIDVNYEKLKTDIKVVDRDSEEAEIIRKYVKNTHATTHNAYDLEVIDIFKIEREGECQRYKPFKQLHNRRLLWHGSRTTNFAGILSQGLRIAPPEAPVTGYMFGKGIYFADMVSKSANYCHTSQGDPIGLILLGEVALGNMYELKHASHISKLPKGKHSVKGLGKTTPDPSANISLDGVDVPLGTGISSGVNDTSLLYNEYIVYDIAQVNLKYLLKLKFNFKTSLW

[2] = system: Poly/Mono-ADP Ribose in U2OS cells; test: PAR in cell western assay (parylation) in U2OS cells; format: cell-based; settings: read-out: Parylation (U2OS)
Procedure: U2OS cells are seeded at 2667 cells per well in 24 ul medium into poly-D lysine-coated 384 well plate and incubated in the TC incubator for O/N
The next day, test comps are diluted in a source plate and 6 μL of the diluted comp is added to the cell plate; mixed well and incubated for 6 hrs. DNA damage is induced with 2 mM H2O2 for 10 min. After discarding the medium, cells are fixed in ice cold Methanol at for 20 min at −20C. After a wash step at room temperature, cells are permeabilized with 0.05% NP-40 in PBS for 10 min, followed by wash steps. Cells are blocked with 1% BSA, at room temperature for 1 hr. Cells are stained with anti mono/polyADP ribose antibody (E6F6A, Cell signaling, 1:5000) in 1×PBS/1% BSA/0.05% Tween o/n at 4C.
Next Day, cells are washed and incubated with anti-Rabbit 800CV (Licor antibody, 1:500) and CellTag 700 (Licor, 1:800) in 1×PBS/1% BSA/0.05% Tween for 1 h. After washing, plates are scanned using LICOR and are quantified.
Parylation inhibition is reported as % control inhibition.
as §1

[3] = target: T1, PARP1; test: PARP trapping assay in U2OS cells; format: cell-based; design: endogenous in cells; host or cells: U2OS; settings: U2OS cells, MMS, 4 hrs; read-out: PARP Trapping (U2OS)
Procedure: U2OS cells are seeded at 15,000 cells/well in 90 ul medium and incubated in the TC incubator for overnight.
Next day, test compounds are prepared in a source plate along with addition of DNA damage reagent MMS simultaneously and 10 ul of the diluted mixture is added to the cell plate and incubated for 4 hrs under T/C conditions.
After 4 hrs, following aspiration and washing, add 100 ul of cold cytoskeleton removal buffer (0.5% Triton X-100) and incubated for 10 min. At the end of incubation, slowly the buffer is removed, and cells are fixed with ice cold MeOH for 15 min at −20C. Followed by wash steps, cells are blocked with 1×PBS/3% BSA/0.05% Tween for 1 h at room temperature.
Cells are stained with anti PARP1 antibody (abeam ab227244, 1:1000), in 1×PBS/1% BSA overnight at 4C.
Wash and add DAPI, scan cells in Celigo.
Data Analysis: DAPI staining is used to segment nuclei and AF488 fluorescence intensity per nucleus is measured.
as §1
Target sequence in this assay (P09874 whole entry): as the sequence (P09874 whole entry, species assumed) above

[4] = system: A2780 cells; test: Cell proliferation assay (A2780); format: cell-based; settings: 7 days
Procedure: (§2) Cells are counted, diluted to desired density and 40 μL of cell suspension is added into each 384-well tissue-culture treated plates. Plates are incubated in Tissue Culture incubator at 37° C./5% C02 overnight.
(§3) Next day, 40 nl test compounds that are prepared from source plates are transferred to the seeded cells from overnight. Plates are incubated at 37° C./5% C02 for a total of 7 days. After 7-day incubation, plates are equilibrated to room temperature and 30 ul of Cell Counting-Lite is added to each well for a 30 min incubation followed by reading on EnVision.
(§4) The letter codes for the cell proliferation assay in A2780, HCC1806, and MDA-MB-436 cells include: A (<10 nM), B (>10-100 nM), C (>100-1000 nM), D (>1000-10000 nM), E (>10000 nM), and “-” is not tested.

[5] = system: MDA-MB-436 cells; test: Cell proliferation assay (MDA-MB-436); format: cell-based; settings: 7 days
Procedure: as §2, §3, §4

[6] = system: HCC1806 cells; test: Cell proliferation assay (HCC1806); format: cell-based; settings: Homo sapiens, 168 h, 7 days
Procedure: as §2, §3, §4

[7] = Homo sapiens, U2OS cells, 6 hrs, 2 mM H2O2

| IC50 [1] [nM] | IC50 [2, 7] [nM] | IC50 [3] [nM] | IC50 ([4]; Homo sapiens, 168 h) [nM] | IC50 ([5]; Homo sapiens, 168 h) [nM] | IC50 ([2]; U2OS cells, 6 hrs, 2 mM H2O2) [nM] | IC50 [4] [nM] | IC50 [5] [nM] | IC50 [6] [nM] | SMILES | IC50 ([2]; Homo sapiens, U2OS, 6 h) [nM] |
| --- | --- | --- | --- | --- | --- | --- | --- | --- | --- | --- |
| < 1 | 100 to 1000 | 10 to 100 | 10 to 100 | 10 to 100 | – | – | – | – | CCOc1cc(OC)ccc1COCC(=O)N1CCCC(c2cccc(C(=O)N[C@@H](C(=O)N3CCN(CC4CCN(CC(=O)N5CCN(C(=O)c6cc(Cc7n[nH]c(=O)c8ccccc78)ccc6F)CC5)CC4)CC3)C3CCCCC3)c2)C1 (stereo partly drawn) [Compound I-354] | – |
| < 1 | 100 to 1000 | 100 to 1000 | 100 to 1000 | < 10 | – | – | – | – | CCc1cccc(-c2cnc(C(=O)N3CCC(CN4CCN(CC(=O)N5CCN(C(=O)c6cc(Cc7n[nH]c(=O)c8ccccc78)ccc6F)CC5)CC4)CC3)c(NC)c2)c1 [Compound I-418] | – |
| 1 to 10 | 10 to 100 | 100 to 1000 | 100 to 1000 | 10 to 100 | – | – | – | – | O=C(N[C@@H](C(=O)N1CCN(CC2CCN(CC(=O)N3CCN(C(=O)c4cc(Cc5n[nH]c(=O)c6ccccc56)ccc4F)CC3)CC2)CC1)C1CCCCC1)c1cccc([C@H]2CCCN(C(=O)CNCc3ccc(F)cc3F)C2)c1 [Compound I-294] | – |
| < 1 | 100 to 1000 | 100 to 1000 | 100 to 1000 | 10 to 100 | – | – | – | – | O=C(N[C@@H](C(=O)N1CCN(CC2CCN(CC(=O)N3CCN(C(=O)c4cc(Cc5n[nH]c(=O)c6ccccc56)ccc4F)CC3)CC2)CC1)C1CCCCC1)c1cccc(C2CCCN(C(=O)COC3CC3)C2)c1 (stereo partly drawn) [Compound I-353] | – |
| < 1 | 100 to 1000 | 100 to 1000 | 1000 to 10000 | 10 to 100 | – | – | – | – | CCc1cccc(-c2cnc(C(=O)N3CCN(CC4CCN(CC(=O)N5CCN(C(=O)c6cc(Cc7n[nH]c(=O)c8ccccc78)ccc6F)CC5)CC4)CC3)c(NC(=O)CNCc3ccncn3)c2)c1 [Compound I-238] | – |
| < 1 | – | 10 to 100 | – | – | 100 to 1000 | 10 to 100 | < 10 | – | CCOc1cc(OC)ccc1CNCC(=O)N1CCC[C@H](c2cccc(C(=O)N[C@@H](C(=O)N3CCC(CN4CCN(CC(=O)N5CCN(C(=O)c6cc(Cc7n[nH]c(=O)c8ccccc78)ccc6F)CC5)CC4)CC3)C3CCCCC3)c2)C1 [Compound I-168] | – |
| < 1 | 100 to 1000 | 100 to 1000 | 100 to 1000 | 10 to 100 | – | – | – | – | O=C(N[C@@H](C(=O)N1CCN(CC2CCN(CC(=O)N3CCN(C(=O)c4cc(Cc5n[nH]c(=O)c6ccccc56)ccc4F)CC3)CC2)CC1)C1CCCCC1)c1cccc(C2CCCN(C(=O)CNC3CC3)C2)c1 (stereo partly drawn) [Compound I-183] | – |
| < 1 | 10 to 100 | 10 to 100 | 10 to 100 | < 10 | – | – | – | – | O=C(CNC1CC1)N1CCCC(c2cccc(C(=O)N3CCN(CC45CCC(C(=O)N6CCN(C(=O)c7cc(Cc8n[nH]c(=O)c9ccccc89)ccc7F)CC6)(CC4)CO5)CC3)c2)C1 (stereo not drawn) [Compound I-377] | – |
| – | 10 to 100 | 10 to 100 | 10 to 100 | < 10 | – | – | – | 10 to 100 | CC1(C(=O)N2CCC(c3cccc(C(=O)N[C@@H](C(=O)N4CCC(OC5CCN(CC(=O)N6CCN(C(=O)c7cc(Cc8n[nH]c(=O)c9ccccc89)ccc7F)CC6)CC5)CC4)C4CCCCC4)c3F)CC2)CC1 [Compound I-883] | – |
| – | < 10 | < 10 | 10 to 100 | < 10 | – | – | – | 10 to 100 | O=C(CN1CCN(CC2CCN(C(=O)c3c(F)cc(-c4ccccn4)cc3F)CC2)CC1)N1CCN(C(=O)c2cc(Cc3n[nH]c(=O)c4ccccc34)ccc2F)CC1 [Compound I-769] | – |
| – | 10 to 100 | 100 to 1000 | 10 to 100 | < 10 | – | – | – | 100 to 1000 | CC(C)(F)C(=O)N1CCCC(c2cccc(C(=O)N[C@@H](C(=O)N3CCN(CC4CCN(CC(=O)N5CCN(C(=O)c6cc(Cc7n[nH]c(=O)c8ccccc78)ccc6F)CC5)CC4)CC3)C3CCCCC3)c2)C1 (stereo partly drawn) [Compound I-528] | – |

Second part, the compound before the results:

| SMILES | IC50 [1] [nM] | IC50 [2, 7] [nM] | IC50 [3] [nM] | IC50 ([4]; Homo sapiens, 168 h) [nM] | IC50 ([5]; Homo sapiens, 168 h) [nM] | IC50 ([2]; U2OS cells, 6 hrs, 2 mM H2O2) [nM] | IC50 [4] [nM] | IC50 [5] [nM] | IC50 [6] [nM] | IC50 ([2]; Homo sapiens, U2OS, 6 h) [nM] |
| --- | --- | --- | --- | --- | --- | --- | --- | --- | --- | --- |
| CCc1cccc(-c2cnc(C(=O)N3CCC(CN4CCN(CC(=O)N5CCN(C(=O)c6cc(Cc7n[nH]c(=O)c8ccccc78)ccc6F)CC5)CC4)CC3)c(NC(=O)CNCc3cccc(C)c3)c2)c1 [Compound I-61] | < 1 | 100 to 1000 | 10 to 100 | 100 to 1000 | 10 to 100 | – | – | – | – | – |
| CCc1cccc(-c2cnc(C(=O)N3CCC(CN4CCN(CC(=O)N5CCN(C(=O)c6cc(Cc7n[nH]c(=O)c8ccccc78)ccc6F)CC5)CC4)CC3)c(NC(=O)CNCc3ccc(F)cc3F)c2)c1 [Compound I-331] | < 1 | 10 to 100 | 100 to 1000 | 10 to 100 | 10 to 100 | – | – | – | – | – |
| O=C(N[C@@H](C(=O)N1CCN(CC(=O)N2CCN(C(=O)c3cc(Cc4n[nH]c(=O)c5ccccc45)ccc3F)CC2)CC1)C1CCCCC1)c1cccc(C2CCCN(C(=O)CNCc3ccc(F)cc3F)C2)c1 (stereo partly drawn) [Compound I-963] | < 1 | – | – | 100 to 1000 | 100 to 1000 | – | – | – | – | 100 to 1000 |
| CCc1cccc(-c2cnc(C(=O)N3CCC(CN4CCN(CC(=O)N5CCN(C(=O)c6cc(Cc7n[nH]c(=O)c8ccccc78)ccc6F)CC5)CC4)CC3)c(OC(F)(F)F)c2)c1 [Compound I-420] | < 1 | 100 to 1000 | 10 to 100 | 100 to 1000 | < 10 | – | – | – | – | – |
| CCc1cccc(-c2cnc(C(=O)NCCCCCNCC(=O)N3CCN(C(=O)c4cc(Cc5n[nH]c(=O)c6ccccc56)ccc4F)CC3)c(NC(=O)CNCc3cccc(C)c3)c2)c1 [Compound I-64] | < 1 | 100 to 1000 | 100 to 1000 | 100 to 1000 | 10 to 100 | – | – | – | – | – |
| CCc1cccc(-c2cnc(C(=O)NC34CCC(CN5CCN(CC(=O)N6CCN(C(=O)c7cc(Cc8n[nH]c(=O)c9ccccc89)ccc7F)CC6)CC5)(CC3)OC4)c(NC(=O)OC(C)(C)C)c2)c1 [Compound I-800] | – | 100 to 1000 | 10 to 100 | 100 to 1000 | < 10 | – | – | – | 100 to 1000 | – |
| CCc1cccc(-c2cnc(C(=O)NCCOCCNCC(=O)N3CCN(C(=O)c4cc(Cc5n[nH]c(=O)c6ccccc56)ccc4F)CC3)c(N)c2)c1 [Compound I-402] | – | 10 to 100 | 100 to 1000 | 10 to 100 | < 10 | – | – | – | 10 to 100 | – |
| CCc1cccc(-c2cc(F)c(C(=O)N3CC4CCC3CC4CN3CCN(CC(=O)N4CCN(C(=O)c5cc(Cc6n[nH]c(=O)c7ccccc67)ccc5F)CC4)CC3)c(F)c2)c1 (stereo not drawn) [Compound I-690] | – | 10 to 100 | 10 to 100 | 100 to 1000 | < 10 | – | – | – | 10 to 100 | – |
| CC(C)(C)OC(=O)Nc1cc(-c2cccc(C#N)c2)cnc1C(=O)NCCOCCNCC(=O)N1CCN(C(=O)c2cc(Cc3n[nH]c(=O)c4ccccc34)ccc2F)CC1 [Compound I-818] | – | 10 to 100 | 100 to 1000 | 10 to 100 | < 10 | – | – | – | 100 to 1000 | – |
